Results: ChEMBL document CHEMBL1128249, “2,4-Diamino-5-substituted-quinazolines as inhibitors of a human dihydrofolate reductase with a site-directed mutation at position 22 and of the dihydrofolate reductases from Pneumocystis carinii and Toxoplasma gondii” (J Med Chem, 1995)

Assays:
[1] = biological target: T1, Dihydrofolate reductase (Pneumocystis carinii, UniProt P16184)
T1 sequence (P16184 whole entry): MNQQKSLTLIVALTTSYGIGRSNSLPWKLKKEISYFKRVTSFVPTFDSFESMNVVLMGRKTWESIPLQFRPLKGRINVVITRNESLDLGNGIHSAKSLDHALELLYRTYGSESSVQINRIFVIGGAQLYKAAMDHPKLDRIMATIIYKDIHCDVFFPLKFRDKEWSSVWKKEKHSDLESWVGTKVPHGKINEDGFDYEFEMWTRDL
Description: Inhibitory activity against Pneumocystis carinii Dihydrofolate reductase

[2] = biological target: T2, Bifunctional dihydrofolate reductase-thymidylate synthase (Toxoplasma gondii, UniProt Q07422)
T2 sequence (Q07422 whole entry): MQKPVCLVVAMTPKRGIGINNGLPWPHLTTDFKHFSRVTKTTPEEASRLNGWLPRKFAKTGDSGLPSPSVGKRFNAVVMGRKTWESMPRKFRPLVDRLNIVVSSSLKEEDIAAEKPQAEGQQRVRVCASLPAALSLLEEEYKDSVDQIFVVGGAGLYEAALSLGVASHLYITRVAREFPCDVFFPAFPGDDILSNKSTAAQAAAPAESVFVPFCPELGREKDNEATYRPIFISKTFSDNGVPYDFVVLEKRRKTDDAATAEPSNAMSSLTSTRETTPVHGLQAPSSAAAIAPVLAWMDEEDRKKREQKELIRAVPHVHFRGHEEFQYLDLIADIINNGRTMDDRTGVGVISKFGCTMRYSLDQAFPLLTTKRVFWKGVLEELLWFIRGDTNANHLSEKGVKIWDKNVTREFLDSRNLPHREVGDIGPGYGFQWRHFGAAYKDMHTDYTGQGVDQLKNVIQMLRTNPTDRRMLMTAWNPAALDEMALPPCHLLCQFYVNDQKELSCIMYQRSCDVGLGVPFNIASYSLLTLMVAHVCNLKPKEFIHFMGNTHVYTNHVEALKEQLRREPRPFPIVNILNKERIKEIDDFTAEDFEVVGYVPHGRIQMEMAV
Description: Inhibitory activity against Toxoplasma gondii Dihydrofolate reductase

[3] = biological target: T3, Dihydrofolate reductase (Homo sapiens, UniProt P00374); assay: Inhibitory compound against Wild-type human DHFR.
T3 sequence (P00374 whole entry): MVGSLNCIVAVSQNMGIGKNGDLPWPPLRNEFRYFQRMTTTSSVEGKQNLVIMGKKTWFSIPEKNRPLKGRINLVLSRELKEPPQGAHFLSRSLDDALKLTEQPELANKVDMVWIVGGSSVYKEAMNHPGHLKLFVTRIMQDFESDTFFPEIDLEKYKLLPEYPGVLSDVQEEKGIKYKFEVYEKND

[4] = biological target: Dihydrofolate reductase (Homo sapiens, UniProt P00374); assay: Inhibitory activity against Leu22-Phe mutant human Dihydrofolate reductase
[5] = biological target: T4, Dihydrofolate reductase (Rattus norvegicus, UniProt Q920D2)
T4 sequence (Q920D2 whole entry): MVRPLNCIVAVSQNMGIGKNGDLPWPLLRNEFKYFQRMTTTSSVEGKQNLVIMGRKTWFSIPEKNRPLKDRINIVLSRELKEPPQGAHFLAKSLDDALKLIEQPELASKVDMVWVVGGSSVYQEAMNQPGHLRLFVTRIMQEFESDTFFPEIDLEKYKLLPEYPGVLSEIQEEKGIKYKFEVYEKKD
Description: Inhibitory activity against rat liver Dihydrofolate reductase

[6] = biological target: T3, Dihydrofolate reductase; assay: Inhibitory activity against Wild-type human DHFR

SMILES | IC50 [1] [nM] | IC50 [2] [nM] | Ki [3] [nM] | Ki [4] [nM] | IC50 [5] [nM] | Ki [6] [nM]
COc1cc(N(C)Cc2cccc3nc(N)nc(N)c23)cc(OC)c1OC | > 20000 | > 20000 | > 500 | 49 | 53000 | –
COc1ccc(OC)c(C#Cc2cccc3nc(N)nc(N)c23)c1 | > 18000 | > 18000 | > 500 | 140 | > 18000 | –
Nc1nc(N)c2c(CNc3ccc(C(=O)NC(CCC(=O)O)C(=O)O)cc3)cccc2n1 (centres undefined) | – | – | – | 2.7 | – | 0.54
Nc1nc(N)c2c(/C=C/c3ccccc3)cccc2n1 | 10000 | 1200 | – | 1.8 | 1500 | –
COc1cc(NCc2cccc3nc(N)nc(N)c23)cc(OC)c1OC | > 20000 | > 20000 | > 500 | 310 | > 20000 | –
Nc1nc(N)c2cc(CNc3ccc(C(=O)NC(CCC(=O)O)C(=O)O)cc3)ccc2n1 (centres undefined) | – | – | – | 0.01 | – | 0.00089
Nc1nc(N)c2c(CCc3ccccc3)cccc2n1 | 3200 | 370 | 23 | 2.9 | 510 | –
COc1ccc(OC)c(CCc2cccc3nc(N)nc(N)c23)c1 | 19000 | 5900 | 41 | 4.2 | 4100 | –
COc1ccc(OC)c(NCc2cccc3nc(N)nc(N)c23)c1 | > 5000 | > 5000 | – | 33 | > 5000 | –
Nc1nc(N)c2c(C#Cc3ccccc3)cccc2n1 | > 30000 | > 30000 | – | 96.3 | > 30000 | > 500
COc1ccc(OC)c(N(C)Cc2cccc3nc(N)nc(N)c23)c1 | > 40000 | > 40000 | > 500 | 250 | 84000 | –
COc1cc(CCc2cccc3nc(N)nc(N)c23)cc(OC)c1OC | 14000 | 930 | 72 | 4.3 | 3700 | –
COc1ccc(OC)c(Cc2cnc3nc(N)nc(N)c3c2C)c1 [PIRITREXIM] | – | – | – | 38 | – | 33
